Data: US20260151372A1, “AZOTOMYCIN PRODRUGS WITH PREFERENTIAL TUMOR DELIVERY” (The Johns Hopkins University, priority 2022, published 2026)

Columns and labels:
Type in all cases: in vitro ADME
[1] = Plasma stability in CES1KO mouse plasma; conditions: 37° C., 60 min
Protocol: (§1) In vitro stability studies were done using CES1KO mouse plasma, human plasma, CES1-KO mouse liver, and human liver microsomes as previously described. For tissue homogenate stability studies, washed tissue was diluted 10-fold in 0.1 M potassium phosphate buffer and homogenized using probe sonication. Crude homogenate was then aliquoted to 1 mL, and spiked with 10 mM stock of the analyte in DMSO to achieve a 10 μM final concentration. The plasma stability of the prodrugs was determined by spiking the analyte in 1 mL of plasma. The plasma and tissues were incubated in an orbital shaker at 37° C. Stability in human liver microsomes was assessed at a final prodrug concentration of 1 μM with 0.2 mg/mL protein for microsomes. All the stability studies were conducted at predetermined times (0 and 60 min), where 50 μL aliquots of the mixture in triplicate were removed and the reaction was quenched by addition of 5 times the volume of ice-cold methanol spiked with the internal standard (losartan: 0.5 μM). The samples were vortex-mixed for 30 s and centrifuged at 10,000 g for 10 min at 4° C. An amount of 50 μL of the supernatant was diluted with 50 μL of water and transferred to a 250 μL polypropylene vial sealed with a Teflon cap. Prodrug disappearance was monitored over time using liquid chromatography and mass spectrometry (LC-MS).
(§2) Analyses were performed on a Dionex ultra high-performance LC system coupled with Q Exactive Focus orbitrap mass spectrometer (Thermo Fisher Scientific Inc., Waltham MA). Separation was achieved using Agilent Eclipse Plus column (100×2.1 mm i.d., maintained at 35° C.) packed with a 1.8 μm C18 stationary phase. The mobile phase consisted of 0.1% formic acid in water and 0.1% formic acid in acetonitrile, […] were operated at a flow rate of 0.3 mL/min for 7 min using gradient elution. The mass spectrometer controlled by Xcalibur software 4.0.27.13 (Thermo Scientific) was operated with a HESI ion source in positive ionization mode. Metabolites were identified in the full-scan mode (from m/z 50 to 1600) by comparing […] samples

[2] = Metabolic stability in CES1-KO mouse liver homogenate; conditions: tissue homogenate, 10 μM, 37° C.
Protocol: as §1, §2

[3] = Plasma stability in human plasma; conditions: 37° C.
Protocol: as §1, §2

[4] = Metabolic stability in human liver microsomes; conditions: 1 μM prodrug, 0.2 mg/mL protein
Protocol: as §1, §2

| Compound | Plasma Stability (% Remaining at 60 min) CES1^−/− Mouse Plasma [1] [%] | Liver Stability (% Remaining at 60 min) CES1^−/− Mouse Liver [2] [%] | Plasma Stability (% Remaining at 60 min) Human Plasma [3] [%] | Liver Stability (% Remaining at 60 min) Human Liver Microsomes [4] [%] |
| --- | --- | --- | --- | --- |
| CC(C)OC(=O)[C@H](CCC(=O)C=[N+]=[N-])NC(=O)[C@H](CCC(=O)C=[N+]=[N-])NC(=O)CC[C@H](N)C(=O)OC(C)C [Prodrug P9, Isopropyl (S)-2-((S)-2-((S)-4-amino-5-isopropoxy-5-oxopentanamido)-6-diazo-5-oxohexanamido)-6-diazo-5-oxohexanoate] | 84.3 ± 10.5 | 0.320 ± 0.026 | 85.9 ± 3.63 | >100 |
| [N-]=[N+]=CC(=O)CC[C@H](NC(=O)[C@H](CCC(=O)C=[N+]=[N-])NC(=O)CC[C@H](NC(=O)CN)C(=O)[O-])C(=O)[O-].[Na+].[Na+] [Prodrug P10, Sodium (S)-2-((S)-2-((S)-4-(2-aminoacetamido)-4-carboxylatobutanamido)-6-diazo-5-oxohexanamido)-6-diazo-5-oxohexanoate] | 104 ± 3.67 | 90.4 ± 2.76 | 90.5 ± 6.35 | 90.4 ± 4.10 |
| CCOC(=O)[C@H](CCC(=O)N[C@@H](CCC(=O)C=[N+]=[N-])C(=O)N[C@@H](CCC(=O)C=[N+]=[N-])C(=O)[O-])NC(=O)CN(C)C.[Na+] [Prodrug P11, Sodium (6S,11S,14S)-11,14-bis(4-diazo-3-oxobutyl)-6-(ethoxycarbonyl)-2-methyl-4,9,12-trioxo-2,5,10,13-tetraazapentadecan-15-oate] | 91.8 ± 4.16 | 96.3 ± 1.80 | 83.6 ± 1.76 | 103 ± 4.97 |
| CN(C)CC(=O)N[C@@H](CCC(=O)N[C@@H](CCC(=O)C=[N+]=[N-])C(=O)N[C@@H](CCC(=O)C=[N+]=[N-])C(=O)[O-])C(=O)[O-].[Na+].[Na+] [Prodrug P12, Sodium (6S,11S,14S)-6-carboxylato-11,14-bis(4-diazo-3-oxobutyl)-2-methyl-4,9,12-trioxo-2,5,10,13-tetraazapentadecan-15-oate] | 95.6 ± 0.44 | 111 ± 9.27 | 76.2 ± 7.25 | 99.6 ± 3.50 |
| CCOC(=O)[C@H](CCC(=O)C=[N+]=[N-])NC(=O)[C@H](CCC(=O)C=[N+]=[N-])NC(=O)CC[C@H](NC(=O)CN(C)C)C(=O)O [Prodrug P13, N^5—((S)-6-diazo-1-(((S)-6-diazo-1-ethoxy-1,5-dioxohexan-2-yl)amino)-1,5-dioxohexan-2-yl)-N^2-(dimethylglycyl)-L-glutamine] | 107 ± 6.6 | 1.55 ± 0.77 | 86.6 ± 2.69 | 109 ± 2.22 |
| CN(C)CC(=O)N[C@@H](CCC(=O)N[C@@H](CCC(=O)C=[N+]=[N-])C(=O)N[C@@H](CCC(=O)C=[N+]=[N-])C(=O)[O-])C(=O)OC(C)(C)C.[Na+] [Prodrug P14, Sodium (6S,11S,14S)-6-(tert-butoxycarbonyl)-11,14-bis(4-diazo-3-oxobutyl)-2-methyl-4,9,12-trioxo-2,5,10,13-tetraazapentadecan-15-oate] | 111 ± 4.09 | 82.4 ± 4.03 | 96.2 ± 3.21 | 103 ± 2.31 |
| CN(C)CC(=O)N[C@@H](CCC(=O)N[C@@H](CCC(=O)C=[N+]=[N-])C(=O)N[C@@H](CCC(=O)C=[N+]=[N-])C(=O)OC(C)(C)C)C(=O)[O-].[Na+] [Prodrug P15, Sodium N^5—((S)-1-(((S)-1-(tert-butoxy)-6-diazo-1,5-dioxohexan-2-yl)amino)-6-diazo-1,5-dioxohexan-2-yl)-N^2-(dimethylglycyl)-L-glutaminate] | >100 | 99.9 ± 3.45 | 104 ± 8.45 | 93.2 ± 4.29 |
| CC(C)C[C@H](N)C(=O)N[C@@H](CCC(=O)N[C@@H](CCC(=O)C=[N+]=[N-])C(=O)N[C@@H](CCC(=O)C=[N+]=[N-])C(=O)[O-])C(=O)[O-].[Na+].[Na+] [Prodrug P16, Sodium (S)-2-((S)-2-((S)-4-((S)-2-amino-4-methylpentanamido)-4-carboxylatobutanamido)-6-diazo-5-oxohexanamido)-6-diazo-5-oxohexanoate] | 4.17 ± 0.58 | 4.50 ± 1.58 | 87.4 ± 1.61 | 91.0 ± 1.01 |
| CC(C)OC(=O)[C@H](CCC(=O)N[C@@H](CCC(=O)C=[N+]=[N-])C(=O)N[C@@H](CCC(=O)C=[N+]=[N-])C(=O)OC(C)C)NC(=O)CNC(=O)CN(C)C [Prodrug P17, Isopropyl (9S,14S,17S)-14,17-bis(4-diazo-3-oxobutyl)-9-(isopropoxycarbonyl)-2-methyl-4,7,12,15-tetraoxo-2,5,8,13,16-pentaazaoctadecan-18-oate] | 94.0 ± 2.47 | 0.964 ± 0.031 | 93.7 ± 4.92 | 98.0 ± 5.36 |
| CC(C)OC(=O)[C@H](CCC(=O)C=[N+]=[N-])NC(=O)[C@H](CCC(=O)C=[N+]=[N-])NC(=O)CC[C@H](NC(=O)[C@H](CCCNC(N)=O)NC(=O)[C@@H](N)C(C)C)C(=O)OC(C)C [Prodrug P18, Isopropyl (6S,9S,14S,17S)-1-amino-6-((S)-2-amino-3-methylbutanamido)-14,17-bis(4-diazo-3-oxobutyl)-9-(isopropoxycarbonyl)-1,7,12,15-tetraoxo-2,8,13,16-tetraazaoctadecan-18-oate] | 105 ± 5 | 0.11 ± 0.03 | 105 ± 4.81 | 84.9 ± 2.30 |
| CC(=O)NCCCC[C@H](NC(=O)C12CC3CC(CC(C3)C1)C2)C(=O)N[C@@H](CCC(=O)N[C@@H](CCC(=O)C=[N+]=[N-])C(=O)N[C@@H](CCC(=O)C=[N+]=[N-])C(=O)OC(C)C)C(=O)OC(C)C [Prodrug P19, Isopropyl (2S,5S,10S,13S)-13-((3S,5S,7S)-adamantane-1-carboxamido)-2,5-bis(4-diazo-3-oxobutyl)-10-(isopropoxycarbonyl)-4,7,12,19-tetraoxo-3,6,11,18-tetraazaicosanoate] | 85.1 ± 0.64 | 0.502 ± 0.103 | 97.0 ± 4.11 | 74.1 ± 2.10 |
